Where a name gives a salt, the structure may show the parent alone.
Experiments:
AMPA receptor = test: Inhibitory action on AMPA-inducing inflow of calcium into nerve cells (Fura2-AM); type: cell-based; settings: rat cerebral cortex nerve cells on astrocytes, 1 μM MK-801, stimulated by 2 μM AMPA, fluorescence 340/380 nm
Description: The cerebral cortex was excised from the brain of a rat on day 18 after birth and treated with trypsin and DNase, whereby the cells were dispersed. The cells were allowed to float on DMEM containing 10% serum, inoculated into a culture bottle, and their astrocytes were grown. The astrocytes were re-dispersed with trypsin and inoculated onto each well on a 96-well plate. After it was confirmed that the bottom of each well was completely covered with the astrocytes after culture for 1 week, cerebral cortex nerve cells dispersed in the same manner as above were inoculated thereon. After 24 hours, the medium was exchanged with fresh one, and after culture for further 1 week, the medium was exchanged with a medium containing 1 μM MK-801.
The inflow of calcium into the cells was measured using Fura2-AM that is a calcium-sensitive fluorescent pigment. By treating the cells with a Fura2-AM-containing medium for 1 hour, Fura2-AM was incorporated into the cells, and the medium was exchanged with a Tyrode solution containing 1 μM MK-801. After a test compound was added, the cells were stimulated by 2 μM AMPA. The change in the amount of calcium flowing into the cells was measured as a change in the fluorescence intensity at wavelengths of 340/380 nm. The effect of a test compound was evaluated where the reaction caused by AMPA added to the Tyrode solution free of the test compound was used as the control.

AMPA receptor channels = test: Inhibitory action on AMPA-inducing electric current in nerve cell membrane (patch clamp); type: cell-based; settings: cultured rat cerebral cortex nerve cells, membrane potential -70 mV, 10 μM AMPA
Description: The action on AMPA receptor channels was examined by a patch clamp method.
The cerebral cortex was excised from the brain of a rat on day 18 after birth and treated with trypsin and DNase, whereby the cells were dispersed. The cells were allowed to float on DMEM containing 10% serum, inoculated into a culture bottle, and their astrocytes were grown. The astrocytes were re-dispersed with trypsin and inoculated onto each well on a 12-well plate.
After it was confirmed that the bottom of each well was completely covered with the astrocytes after culture for 1 week, a cover glass treated with poly-1-lysine was placed thereon, and cerebral cortex nerve cells dispersed in the same manner as above were further inoculated thereon. After 24 hours, the medium was exchanged with fresh one, and after culture for further 1 week, the medium was exchanged with a medium containing 1 μM MK-801.
The membrane potential of the cerebral cortex nerve cells cultured for 9 days or more was fixed at −70 mV by a patch clamp method, and after a test compound was added, 10 μM AMPA was applied as a stimulus to the cells. By using, as the control, electric current flowing via the membrane into the cells in the absence of the test compound, the action of the compound in Example 1 was examined.

male ddy mice = test: Inhibitory action on AMPA-inducing spasm; type: in vivo; settings: intravenous, 5 minutes before 1.5 nmol AMPA into the ventricle
Description: A test compound or its solvent only was intravenously injected into 4-week-old male ddy mice, and 5 minutes later, 1.5 nmol AMPA was administered into the ventricle thereby inducing spasm. The action of the test chemical was judged by the presence or absence of spasm, and its dose causing 80% or more inhibition was regarded as an effective dose.

male SD rat = test: Reduction of infarct in a model with occlusion of midbrain/cerebrum arteries; type: in vivo; settings: from 30 min after occlusion, 6 h, vs solvent only
Description: The cervical region of a 8-week-old male SD rat was cut across the midline, and a right carotid artery was removed. An operation nylon thread (standard 4-0) was inserted into an external carotid artery, and blood stream in the midbrain/cerebrum arteries in the skull was occluded by the nylon thread, whereby a model with occlusion of midbrain/cerebrum arteries was prepared. Thirty minutes after the midbrain/cerebrum arteries were occluded, a test compound or its solvent only was once administered intravenously into the rat, and thereafter, it was continuously administered intravenously at a constant injection rate. The body temperature was controlled at 37.5 to 38.0° from the initiation of administration to the termination of administration. Six hours after the initiation of administration, the brain was excised from the rat and immediately cut into brain sections of 2 mm in thickness, which were then stained with 2% TTC solution. An image of these stained sections was incorporated into NIH image and the area of non-stained portions showing infarct loci was measured, and thereafter, the volume of the infarct loci was calculated.

[1] = tested on: rat model with cerebral ischemia; settings: Le Peillet et al., Brain Research, 571, 115, 1992; cited from earlier work
[2] = tested on: experimental animal model with cerebral ischemia; settings: Sheardown et al., Science, 247, 571, 1990; cited from earlier work

## O=C1COC(c2ccccn2)=NN1c1ccccc1 (as salt: hydrochloride) [Example 1, 2-(2-Pyridyl)-4-phenyl-4H-1,3,4-oxadiazine-5(6H)-one hydrochloride]
other
  melting point: 149 to 150 °C

## O=C1COC(c2ccccn2)=NN1c1ccccc1 [Example 1, 2-(2-Pyridyl)-4-phenyl-4H-1,3,4-oxadiazine-5(6H)-one hydrochloride]
AMPA receptor
  IC50: 11.8 µM
AMPA receptor channels
  IC50: 12.3 µM
Male ddy mice
  effective dose (dose causing 80% or more inhibition of spasm): 30 mg/kg
Male SD rat; single i.v. 6.6 mg/kg then continuous i.v. 10 mg/kg/h
  reduction of infarct loci in the cerebral cortex: 54%
Male SD rat; single i.v. 20 mg/kg then continuous i.v. 30 mg/kg/h
  reduction of infarct loci in the cerebral cortex: 74%

## O=C1COC(c2ncccc2O)=NN1c1ccccc1 [Example 14, 2-(3-Hydroxy-2-pyridyl)-4-phenyl-4H-1,3,4-oxadiazine-5(6H)-one]
AMPA receptor
  IC50: 1.56 µM
Male ddy mice
  effective dose (dose causing 80% or more inhibition of spasm): 10 mg/kg

## N#Cc1ccccc1N1N=C(c2ccccc2)OCC1=O [Example 36, 2-Phenyl-4-(2-cyanoeyphenyl)-4H-1,3,4-oxadiazine-5(6H)-one]
AMPA receptor
  IC50: 2.28 µM
Male ddy mice
  effective dose (dose causing 80% or more inhibition of spasm): 10 mg/kg

## CN(C)CCOc1ccccc1C1=NN(c2ccccc2Br)C(=O)CO1.Cl [Example 54, 2-[2-(2-Dimethylamino)ethoxyphenyl]-4-(2-bromophenyl)-4H-1,3,4-oxadiazine-5(6H)-one hydrochloride]
AMPA receptor
  IC50: 4.14 µM
Male ddy mice
  effective dose (dose causing 80% or more inhibition of spasm): 30 mg/kg
other
  melting point: 169 to 170 °C

## Cl.O=C1COC(c2ccccc2OCCN2CCOCC2)=NN1c1ccccc1Br [Example 68, 2-{2-[2-(4-Morpholinyl)ethoxy]phenyl}-4-(2-bromophenyl)-4H-1,3,4-oxadiazine-5(6H)-one hydrochloride]
AMPA receptor
  IC50: 11.1 µM
Male ddy mice
  effective dose (dose causing 80% or more inhibition of spasm): 30 mg/kg

## O=C1COC(c2ccccc2OCCN2CCOCC2)=NN1c1ccc(F)cc1 [Example 70, 2-{2-[2-(4-Morpholinyl)ethoxy]phenyl}-4-(4-fluorophenyl)-4H-1,3,4-oxadiazine-5(6H)-one hydrochloride]
AMPA receptor
  IC50: 27.2 µM

## O=C1COC(c2ccccc2OCCN2CCOCC2)=NN1c1ccc(F)cc1F [Example 71, 2-{2-[2-(4-Morpholinyl)ethoxy]phenyl}-4-(2,4-difluorophenyl)-4H-1,3,4-oxadiazine-5(6H)-one hydrochloride]
AMPA receptor
  IC50: 21 µM

## Nc1cccc(C2=NN(c3ccccc3)C(=O)CO2)c1 [Example 78, 2-(3-aminophenyl)-4-phenyl-4H-1,3,4-oxadiazine-5(6H)-one]
AMPA receptor
  IC50: 31.8 µM

## O=C1COC(c2ccccc2)=NN1C1CCOCC1 [Example 80, 2-Phenyl-4-(tetrahydro-4H-pyran-4-yl)-4H-1,3,4-oxadiazine-5(6H)-one]
AMPA receptor
  IC50: 62 µM

## O=C1COC(c2ccccc2)=NN1C1CCN(Cc2ccccc2)CC1 [Example 86, 2-Phenyl-4-(1-benzyl-4-piperidyl)-4H-1,3,4-oxadiazine-5(6H)-one hydrochloride]
AMPA receptor
  IC50: 16.9 µM

## CC(c1ccccn1)N1N=C(c2ccccc2)OCC1=O (stereo not drawn) [Example 87, 2-Phenyl-4-[1-(2-pyridyl)ethyl]-4H-1,3,4-oxadiazine-5(6H)-one hydrochloride]
AMPA receptor
  IC50: 25.4 µM

## CC(c1cccnc1)N1N=C(c2ccccc2)OCC1=O (stereo not drawn) [Example 88, 2-Phenyl-4-[1-(3-pyridyl)ethyl]-4H-1,3,4-oxadiazine-5(6H)-one oxalate]
AMPA receptor
  IC50: 52.3 µM

## CC(c1ccncc1)N1N=C(c2ccccc2)OCC1=O (stereo not drawn) [Example 89, 2-Phenyl-4-[1-(4-pyridyl)ethyl]-4H-1,3,4-oxadiazine-5(6H)-one oxalate]
AMPA receptor
  IC50: 54 µM

## CN(C)c1cccc(C2=NN(c3ccccc3)C(=O)CO2)c1 [Example 90, 2-(3-Dimethylaminophenyl)-4-phenyl-4H-1,3,4-oxadiazine-5(6H)-one]
AMPA receptor
  IC50: 31.4 µM

## CN(C)c1ccccc1C1=NN(c2ccccc2)C(=O)CO1 [Example 91, 2-(2-Dimethylaminophenyl)-4-phenyl-4H-1,3,4-oxadiazine-5(6H)-one]
AMPA receptor
  IC50: 19.1 µM

## O=C1COC(c2ccncc2)=NN1c1ccccc1 [Example 94, 2-(4-Pyridyl)-4-phenyl-4H-1,3,4-oxadiazine-5(6H)-one hydrochloride]
AMPA receptor
  IC50: 98.7 µM

## O=C(Nc1ccccn1)C1=NN(c2ccccc2)C(=O)CO1 [Example 95, N-(2-Pyridyl)-[4-phenyl-4H-1,3,4-oxadiazine-5(6H)-one-2-yl]carboxamide hydrochloride]
AMPA receptor
  IC50: 48.2 µM

## O=C1COC(c2ccccc2)=NN1c1ccccc1Cl [Example 100, 2-Phenyl-4-(2-chlorophenyl)-4H-1,3,4-oxadiazine-5(6)-one]
AMPA receptor
  IC50: 0.8 µM

## O=C1COC(c2ccccc2)=NN1c1c(Cl)cccc1Cl [Example 101, 2-Phenyl-4-(2,6-dichlorophenyl)-4H-1,3,4-oxadiazine-5(6)-one]
AMPA receptor
  IC50: 3.4 µM

## O=C1C(O)SC(c2ccccc2)=NN1c1ccccc1 (stereo not drawn) [Example 102, 2,4-Diphenyl-6-hydroxy-4-1,3,4-thiadiazine-5-one]
AMPA receptor
  IC50: 8.2 µM

## CN(CCOc1ccccc1C1=NN(c2ccccc2Br)C(=O)CO1)Cc1ccccc1 [Example 103, 2-{2-[2-(N-Benzyl-N-methyl)amino]ethoxyphenyl}-4-(2-bromophenyl)-4H-1,3,4-oxadiazine-5(6H)-one]
AMPA receptor
  IC50: 4.2 µM

## CNCCOc1ccccc1C1=NN(c2ccccc2Br)C(=O)CO1 [Example 104, 2-[2-(Methylamino)ethoxyphenyl]-4-(2-bromophenyl)-4H-1,3,4-oxadiazine-5(6H)-one]
AMPA receptor
  IC50: 2.7 µM

## O=C1COC(c2ccccn2)=NN1c1ccccc1I [Example 105, 2-(2-Pyridyl)-4-(2-iodophenyl)-4H-1,3,4-oxadiazine-5(6H)-one]
AMPA receptor
  IC50: 1.9 µM

## N#Cc1ccccc1N1N=C(c2ccccn2)OCC1=O [Example 106, 2-(2-Pyridyl)-4-(2-cyanophenyl)-4H-1,3,4-oxadiazine-5(6H)-one]
AMPA receptor
  IC50: 7.3 µM

## CC1(C)OC(c2ccccc2)=NN(c2ccccc2)C1=O [Example 107, 2,4-Diphenyl-6,6-dimethyl-4H-1,3,4-oxadiazine-5-one]
AMPA receptor
  IC50: 6.4 µM

## O=C1C(c2ccccc2)OC(c2ccccc2)=NN1c1ccccc1 (stereo not drawn) [Example 108, 2,4,6-triphenyl-4H-1,3,4-oxadiazine-5-one]
AMPA receptor
  IC50: 13.2 µM

## CC1=NN=C(c2ccc(N)cc2)c2cc3c(cc2C1)OCO3 [GYKI 52466, 1-(amino-phenyl)-4-methyl-7,8-methylenedioxy-5H-2,3-benzoazepine hydrochloride, reference compound]
AMPA receptor
  IC50: 9.02 µM
[1]
  nerve-protecting action in rat model with cerebral ischemia: exerts a nerve-protecting action

## NS(=O)(=O)c1cccc2c1c([N+](=O)[O-])cc1nc(O)c(O)nc12 [NBQX, 2,3-dihydroxy-6-nitro-7-sulfamoyl-benzo[f-]quinoxaline]
[2]
  effect in experimental animal model with cerebral ischemia: effective

From patent US6825192B1, “Heterodiazinone derivatives” (Eisai Co., Ltd., priority 1999, dated 2004)
